From ChEMBL document CHEMBL1122133, “(+/-)-cis-2-acetoxycyclobutyltrimethylammonium iodide: a semirigid analogue of acetylcholine” (1982)

Species: Cavia porcellus
Assay: Evaluated for muscarinic activity using guinea pig ilea
Format: functional

Compound	ID50 [nM]
CC(=O)O[C@@H]1CC[C@H]1[N+](C)(C)C.[I-]	68
CC(=O)O[C@H]1CC[C@H]1[N+](C)(C)C.[I-]	83
